In US8367583B2, “Composition and method for controlling pests” (Sumitomo Chemical Company, Limited, priority 2009, dated 2013) one finds Control rate data, which are given here for two compounds.

Experiment [1] concerns first-instar larvae of Nilaparvata lugens. Kind of experiment: Test Example 3: rice seed immersion, control rate against Nilaparvata lugens larvae. The format is in vivo. The conditions noted are these: rice seeds immersed 24 hours at 30° C., 7 days after release. The source says:
(§1) Control Rate=100×(1−[(Ts/30)/(Cs/30)]) “Equation A” where Ts and Cs denote the number of surviving larvae in the treatment group and the non-treatment group, respectively. When the control rate is less than 0 (Ts>Cs), it is represented by 0.
An aqueous solution of the compound I prepared by dissolving the compound I in water was appropriately mixed with a chemical solution of fipronil prepared by diluting fipronil (Prince Flowable: manufactured by BASF Agro, Ltd.) with water to prepare a mixed chemical solution for test of the compound I and fipronil with a predetermined concentration. In 40 ml of the mixed chemical solution for test, 100 of rice seeds were immersed and allowed to stand at 30° C. for 24 hours, and then each of the 15 seeds were sown in cultivation soil filled in a 90-ml plastic cup. Eleven (11) days after the sowing, 30 of first-instar larvae of Nilaparvata lugens were released on seedlings germinated from the rice seeds. After 7 days, the number of the surviving larvae was counted and the control rate was calculated using the equation A in the same manner as in Example 2.
(§2) For comparison, the test was conducted in the same manner using an aqueous solution for test having a predetermined concentration of the compound I prepared by diluting an aqueous solution of the compound I with water, and a chemical solution for test having a predetermined concentration of fipronil prepared by diluting a chemical solution of fipronil with water, respectively.

The subject of experiment [2] is first-instar larvae of Pseudaletia Separata. Kind of experiment: Test Example 2: treatment of the foot of rice seedlings, control rate against Pseudaletia Separata larvae. In kind it is in vivo. The following applies: rice seedling foot treated with 5 ml, 3 days after release. Here is the method:
An aqueous solution of the compound I prepared by dissolving the compound I in water was appropriately mixed with a chemical solution of fipronil prepared by diluting Fipronil (Prince Flowable: manufactured by BASF Agro, Ltd.) with water to prepare a mixed chemical solution for test of the compound I and fipronil with a predetermined concentration. The foot of a rice seedling (2 weeks after germination) cultivated in a 90-ml plastic cup using cultivation soil was treated with 5 ml of the mixed chemical solution for test. After 3 days, 30 of first-instar larvae of Pseudaletia Separata were released per plant. After 3 days, the number of surviving larvae was counted and the control rate was calculated using the equation A.
as §2, §1

In the case of `O=C(O)CCC(=O)NCCc1ccccc1` [Compound I, 4-oxo-4-[(2-phenylethyl)amino]-butyric acid], the Control rate in experiment [1] (Compound I 50 ppm singly (Fipronil 0 ppm)) is listed as 11%; in experiment [1] (Compound I 200 ppm singly (Fipronil 0 ppm)), 21%; in experiment [2] (Compound I 10 ppm singly (Fipronil 0 ppm)), 0%; in experiment [2] (Compound I 30 ppm singly (Fipronil 0 ppm)) it was 0%; in experiment [2] (Compound I 100 ppm singly (Fipronil 0 ppm)), 0%.

Turning to `N#Cc1nn(-c2c(Cl)cc(C(F)(F)F)cc2Cl)c(N)c1[S+]([O-])C(F)(F)F` (stereo not drawn) [Fipronil, 5-amino-1-(2,6-dichloro-α,α,α-trifluoro-p-tolyl)-4-trifluoromethylsulfinyl pyrazole-3-carbonitrile, reference compound], the Control rate was found to be 50% in experiment [1] (Fipronil 3.1 ppm singly (Compound I 0 ppm)), 23% in experiment [2] (Fipronil 10 ppm singly (Compound I 0 ppm)), 41% in experiment [2] (Fipronil 30 ppm singly (Compound I 0 ppm)) and 68% in experiment [2] (Fipronil 100 ppm singly (Compound I 0 ppm)).
